Columns and labels:
[1] = target: T1, AHAS (acetohydroxyacid synthase) in enzyme extracts from normal rice variety Lemont (Oryza sativa subsp. japonica, UniProt Q6K2E8); assay: AHAS enzyme assay, extract from rice variety Lemont; assay type: biochemical
T1 construct: 40.0 grams (fresh weight) of tissue were extracted in the same manner for each of the three varieties; from tissue; host or cells: stem tissue of greenhouse-grown rice seedlings, variety Lemont (leaf blades removed)
T1 sequence (Q6K2E8 40-644 limits assumed): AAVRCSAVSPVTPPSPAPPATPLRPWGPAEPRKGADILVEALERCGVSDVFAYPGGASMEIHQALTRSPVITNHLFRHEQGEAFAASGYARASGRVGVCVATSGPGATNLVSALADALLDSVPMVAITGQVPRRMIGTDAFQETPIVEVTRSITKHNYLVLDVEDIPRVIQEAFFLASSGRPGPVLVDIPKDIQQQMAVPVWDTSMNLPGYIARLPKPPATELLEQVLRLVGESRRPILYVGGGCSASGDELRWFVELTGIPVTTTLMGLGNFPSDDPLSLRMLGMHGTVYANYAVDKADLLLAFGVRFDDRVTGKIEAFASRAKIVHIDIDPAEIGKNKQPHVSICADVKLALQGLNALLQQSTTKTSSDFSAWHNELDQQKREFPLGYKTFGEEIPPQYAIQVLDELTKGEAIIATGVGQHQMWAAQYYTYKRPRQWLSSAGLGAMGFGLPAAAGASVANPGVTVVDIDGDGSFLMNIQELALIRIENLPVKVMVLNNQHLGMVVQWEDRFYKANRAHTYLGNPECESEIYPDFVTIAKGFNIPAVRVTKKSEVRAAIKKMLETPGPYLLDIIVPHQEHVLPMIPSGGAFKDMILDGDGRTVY
Text: The herbicide resistance of the AHAS enzyme from the ATCC 75295 rice line was compared to the resistance of the AHAS enzymes from the rice varieties "Lemont" and "Mercury," the varieties that were the ancestors of this rice line. The procedures used to assay the activity of acetohydroxyacid synthase were substantially as described in B. K. Singh et al., "Assay of Acetohydroxyacid Synthase," Analytical Biochemistry, vol. 171, pp. 173-179 (1988), except as noted. In the first paragraph of Singh's "Materials and Methods," instead of corn suspension culture cells, stem tissues from greenhouse-grown rice seedlings at the four-leaf stage of development were used. Leaf blades were removed, and 40.0 grams (fresh weight) of tissue were extracted in the same manner for each of the three varieties. […] Pursuit herbicide (imazethapyr) was included in the "standard reaction mixture" for the AHAS assay in the concentrations indicated in Table 1 below. Checks were made of direct acetoin formation during the enzyme assay. Each treatment was conducted with two replicates.

[2] = tested on: rice line ATCC 75295 (first resistance mechanism only); assay: Greenhouse test of plant vigor after imazethapyr, ATCC 75295; assay type: in vivo; conditions: for Rating of rice plant vigor: 36 days after treatment at 2-3 leaf stage, 10-point scale, 0 = dead plant, 10 = no visible injury
Text: (§1) In the greenhouse tests, pots were planted with F3 seed from crosses between the two lines. Each pot was planted with seed from a single panicle from a single plant; each pot was therefore the equivalent of a headrow. A total of 140 pots were planted in this manner, along with 40 pots of various non-resistant genotypes for comparison. Imazethapyr was applied at the 2-3 leaf stage two weeks after planting, at rates equivalent to 0.063 lb. active ingredient (a.i.) per acre, 0.125 lb. a.i./acre, and 0.313 lb. a.i./acre.
(§2) Table 2 summarizes measurements taken 36 days after spraying rice at the 2-3 leaf stage of development.

[3] = tested on: Resistant F3 Hybrid of ATCC 75295 and ATCC 97523; assay: Greenhouse test of plant vigor after imazethapyr, resistant F3 hybrid; assay type: in vivo, rice; conditions: for Rating of rice plant vigor: 36 days after treatment at 2-3 leaf stage, 10-point scale, 0 = dead plant, 10 = no visible injury
Text: as §1
Because the material being tested was an F3 population, with genes still segregating, individual plants had different levels of resistance. At the time this patent application is being filed, there had not been sufficient time to raise rice lines that were demonstrably homozygous for both resistance mechanisms. Raising such demonstrably homozygous lines will be routine for one of ordinary skill in the art, but will require additional time.
as §2

[4] = tested on: single surviving plant derived from rice variety AS3510 treated with 0.5% EMS; assay: Field screen of mutagenised rice seedlings, surviving plant; assay type: in vivo; conditions: imazethapyr 0.125 lb a.i. per acre (2X), 0.25% non-ionic surfactant; 3-4 leaf stage; about four weeks later
Text: (§3) The second resistance mechanism resulted from inducing mutations in seeds of each of ten rice varieties. Mutations were induced by exposure either to gamma rays or to the chemical mutagen ethyl methanesulfonate (EMS). Ten-pound lots of seed of each variety were subjected to 25 k-rad of gamma irradiation from a Cobalt-60 source at the Nuclear Science Center, Louisiana State University, Baton Rouge, La. prior to planting. An additional ten pounds of seed of each variety was divided into three equal portions; and each portion was soaked for 16 hours in either 0.1%, 0.5%, or 1% EMS immediately prior to planting. Several hundred pounds of seed were harvested from plants grown from the seeds subjected to these mutagenic treatments.
(§4) The following spring the harvested seed was planted in strips in a field planting occupying a total of about three acres. At the 3-4 leaf stage of seedling development, herbicides were applied to screen for herbicide-resistant mutants. Half of the seedlings of each variety were sprayed with a 2X treatment of nicosulfuron, and half were sprayed with a 2X treatment of imazethapyr, in both cases by a tractor-mounted sprayer. Nicosulfuron was applied at the rate of 0.063 lb active ingredient (a.i.) per acre, and imazethapyr was applied at 0.125 lb a.i. per acre. Non-ionic surfactant (0.25%) was added to each spray solution. […]

[5] = tested on: mutagenised rice seedlings of ten rice varieties; assay: Field screen of mutagenised rice seedlings, all other plants; assay type: in vivo; conditions: 2X treatment: nicosulfuron 0.063 lb a.i. per acre, imazethapyr 0.125 lb a.i. per acre; 0.25% non-ionic surfactant; 3-4 leaf stage; about four weeks later
Text: as §3, §4

Q: Which activity at 0.1 µM ([1]; imazethapyr 0.1 μM) does the source give for CCc1cnc(C2=NC(C)(C(C)C)C(=O)N2)c(C(=O)O)c1 (racemic) [imazethapyr, (±)-2-[4,5-dihydro-4-methyl-4-(1-methylethyl)-5-oxo-1H-imidazol-2-yl]-5-ethyl-3-pyridinecarboxylic acid] here?
A: 102%

Q: And the activity at 1 µM ([1]; imazethapyr 1 μM)?
A: 102%

Q: What about the activity at 10 µM ([1]; imazethapyr 10 μM) of the same compound?
A: 87%

Q: And the activity at 100 µM ([1]; imazethapyr 100 μM)?
A: 81%

Q: What about the “Rating of rice plant vigor” value ([2]; 0.063 lb. a.i./acre) of the same compound?
A: 0.61 ± 0.03

Q: And the “Rating of rice plant vigor” value ([2]; 0.125 lb. a.i./acre)?
A: 0.81 ± 0.45

Q: What about the “Rating of rice plant vigor” value ([2]; 0.313 lb. a.i./acre) of the same compound?
A: about 0.6

Q: And the “Rating of rice plant vigor” value ([2]; 0.313 lb. a.i./acre, listed as Imazethapyr)?
A: 0.55 ± 0.55

Q: What about the “Time to visible resumption of growth after herbicide application” value ([2]; ATCC 75295 plants, greenhouse test) of the same compound?
A: about three weeks

Q: And the “Visible injury (in words)” value ([2]; plants with only the first resistance mechanism, 0.313 lb a.i./acre, 36 days after treatment)?
A: substantial injury

Q: What about the “Rating of rice plant vigor” value ([3]; 0.063 lb. a.i./acre) of the same compound?
A: 10

Q: And the “Rating of rice plant vigor” value ([3]; 0.125 lb. a.i./acre)?
A: 10

Q: And the “Rating of rice plant vigor” value ([3]; 0.313 lb. a.i./acre)?
A: 10

Q: And the “Tolerance (in words)” value ([3]; F3 plants that inherited both resistance mechanisms, up to 0.313 lb. a.i. per acre)?
A: tolerance to all levels of herbicide tested

Q: And the “Visible injury (in words)” value ([3]; plants with both resistance mechanisms, 0.313 pounds active ingredient per acre, 36 days after treatment)?
A: no visible injury

Q: And the “Time to visible resumption of growth after herbicide application” value ([3]; resistant F3 plants, greenhouse test)?
A: about a week

Q: And the “Symptoms of injury (in words)” value [4]?
A: No symptoms of injury

Q: And the “Symptoms of injury (in words)” value [5]?
A: either severely injured or dead

Source: US5736629A, “Herbicide resistant rice” (priority 1997, dated 1998)
